In patent US11957687B2 (REGENERON PHARMACEUTICALS, INC., priority 2019, dated 2024):

Biological target: HSD17B13 (Homo sapiens (Human), UniProt Q7Z5P4)
Experiment: HSD17B13 enzymatic inhibition assay (150 nM or 50 nM HSD17B13)
Format: biochemical
Details: 50 nM HSD17B13; read-out: Inhibition of 50 nM of HSD17B13 IC50

HSD17B13, sequence (Q7Z5P4 other isoform, or with tags, fused parts or gaps): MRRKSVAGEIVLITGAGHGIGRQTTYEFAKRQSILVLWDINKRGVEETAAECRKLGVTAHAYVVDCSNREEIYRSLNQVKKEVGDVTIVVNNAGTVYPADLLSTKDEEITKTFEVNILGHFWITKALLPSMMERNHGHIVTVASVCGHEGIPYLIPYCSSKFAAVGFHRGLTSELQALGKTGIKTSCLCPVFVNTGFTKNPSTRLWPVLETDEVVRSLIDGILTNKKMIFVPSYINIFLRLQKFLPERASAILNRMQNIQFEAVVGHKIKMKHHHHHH

IC50 [nM]	SMILES
960	Cc1cc(C(F)(F)F)[nH]c(=O)c1C(=O)NC(c1ccccc1)c1ccc(CC(F)(F)F)cc1 (stereo not shown) [Compound 125, 4-methyl-2-oxo-N-(phenyl(4-(2,2,2-trifluoroethyl)phenyl)methyl)-6-(trifluoromethyl)-1,2-dihydropyridine-3-carboxamide]
1750	Cc1ccc(C(NC(=O)c2c(C)cc(C(F)(F)F)[nH]c2=O)c2ccccc2)cc1 (stereo not shown) [Compound 126, 4-methyl-2-oxo-N-(phenyl(p-tolyl)methyl)-6-(trifluoromethyl)-1,2-dihydropyridine-3-carboxamide]
3750	O=C(NC1CCSc2ccccc21)c1ccc(C(F)(F)F)[nH]c1=O (stereo not shown) [Compound 127, 2-oxo-N-(thiochroman-4-yl)-6-(trifluoromethyl)-1,2-dihydropyridine-3-carboxamide]
5690	O=C(NC1CCOc2ccccc21)c1ccc(C(F)(F)F)[nH]c1=O (stereo not shown) [Compound 128, N-(chroman-4-yl)-2-oxo-6-(trifluoromethyl)-1,2-dihydropyridine-3-carboxamide]
4330	CC1CC(NC(=O)c2ccc(C(F)(F)F)[nH]c2=O)c2ccccc2O1 (stereo not shown) [Compound 129, N-(2-methylchroman-4-yl)-2-oxo-6-(trifluoromethyl)-1,2-dihydropyridine-3-carboxamide]
> 10000	O=C(NC1CCNc2ccccc21)c1ccc(C(F)(F)F)[nH]c1=O (stereo not shown) [Compound 130, 2-oxo-N-(1,2,3,4-tetrahydroquinolin-4-yl)-6-(trifluoromethyl)-1,2-dihydropyridine-3-carboxamide]
1820	O=C(NC1CCc2cc(Cl)ccc21)c1ccc(C(F)(F)F)[nH]c1=O (stereo not shown) [Compound 131, N-(5-chloro-2,3-dihydro-1H-inden-1-yl)-2-oxo-6-(trifluoromethyl)-1,2-dihydropyridine-3-carboxamide]
1450	O=C(NC1CCCc2ccccc21)c1ccc(C(F)(F)F)[nH]c1=O (stereo not shown) [Compound 132, 2-oxo-N-(1,2,3,4-tetrahydronaphthalen-1-yl)-6-(trifluoromethyl)-1,2-dihydropyridine-3-carboxamide]
1450	Cc1ccc2c(c1)CCC2NC(=O)c1ccc(C(F)(F)F)[nH]c1=O (stereo not shown) [Compound 133, N-(5-methyl-2,3-dihydro-1H-inden-1-yl)-2-oxo-6-(trifluoromethyl)-1,2-dihydropyridine-3-carboxamide]
1910	O=C(NC1CCc2cc(O)ccc21)c1ccc(C(F)(F)F)[nH]c1=O (stereo not shown) [Compound 135, N-(5-hydroxy-2,3-dihydro-1H-inden-1-yl)-2-oxo-6-(trifluoromethyl)-1,2-dihydropyridine-3-carboxamide]
1130	O=C(NC1CCc2c(O)cccc21)c1ccc(C(F)(F)F)[nH]c1=O (stereo not shown) [Compound 136, N-(4-hydroxy-2,3-dihydro-1H-inden-1-yl)-2-oxo-6-(trifluoromethyl)-1,2-dihydropyridine-3-carboxamide]
4190	O=C(NC1c2ccccc2COc2ccccc21)c1ccc(C(F)(F)F)[nH]c1=O (stereo not shown) [Compound 137, N-(6,11-dihydrodibenzo[b,e]oxepin-11-yl)-2-oxo-6-(trifluoromethyl)-1,2-dihydropyridine-3-carboxamide]
510	C=Cc1ccc2c(c1)Oc1cccc(C=C)c1C2NC(=O)c1ccc(C(F)(F)F)[nH]c1=O (stereo not shown) [Compound 139, N-(1,6-divinyl-9H-xanthen-9-yl)-2-oxo-6-(trifluoromethyl)-1,2-dihydropyridine-3-carboxamide]
540	CCc1ccc2c(c1)Oc1cccc(CC)c1C2NC(=O)c1ccc(C(F)(F)F)[nH]c1=O (stereo not shown) [Compound 142, N-(1,6-diethyl-9H-xanthen-9-yl)-2-oxo-6-(trifluoromethyl)-1,2-dihydropyridine-3-carboxamide]
90	CCc1ccc2c(c1)Oc1cc(CC)ccc1C2NC(=O)c1ccc(C(F)(F)F)[nH]c1=O [Compound 143, N-(3,6-diethyl-9H-xanthen-9-yl)-2-oxo-6-(trifluoromethyl)-1,2-dihydropyridine-3-carboxamide]
310	O=C(NC1c2ccc(CC(F)(F)F)cc2Oc2cc(CC(F)(F)F)ccc21)c1ccc(C(F)(F)F)[nH]c1=O [Compound 144, N-(3,6-bis(2,2,2-trifluoroethyl)-9H-xanthen-9-yl)-2-oxo-6-(trifluoromethyl)-1,2-dihydropyridine-3-carboxamide]
210	O=C(NC1c2ccc(C3CC3)cc2Oc2cc(C3CC3)ccc21)c1ccc(C(F)(F)F)[nH]c1=O [Compound 145, N-(3,6-dicyclopropyl-9H-xanthen-9-yl)-2-oxo-6-(trifluoromethyl)-1,2-dihydropyridine-3-carboxamide]
> 10000	Cc1ccc2c(c1)Oc1cccc(C)c1C2NC(=O)c1ccc(C)[nH]c1=O (stereo not shown) [Compound 147, N-(1,6-dimethyl-9H-xanthen-9-yl)-6-methyl-2-oxo-1,2-dihydropyridine-3-carboxamide]
670	Cc1ccc2c(c1)C(NC(=O)c1ccc(C(F)(F)F)[nH]c1=O)c1ccccc1O2 (stereo not shown) [Compound 148, N-(2-methyl-9H-xanthen-9-yl)-2-oxo-6-(trifluoromethyl)-1,2-dihydropyridine-3-carboxamide]

IC50 [nM]	SMILES
> 10000	Cc1ccc2c(c1)Oc1cc(C)ccc1C2NC(=O)c1ccc(C)[nH]c1=O [Compound 149, N-(3,6-dimethyl-9H-xanthen-9-yl)-6-methyl-2-oxo-1,2-dihydropyridine-3-carboxamide]
400	O=C(NC1c2ccccc2Oc2ccc(F)cc21)c1ccc(C(F)(F)F)[nH]c1=O (stereo not shown) [Compound 150, N-(2-fluoro-9H-xanthen-9-yl)-2-oxo-6-(trifluoromethyl)-1,2-dihydropyridine-3-carboxamide]
290	O=C(NC1c2ccccc2Oc2cc(C3CCC3)ccc21)c1ccc(C(F)(F)F)[nH]c1=O (stereo not shown) [Compound 151, N-(3-cyclobutyl-9H-xanthen-9-yl)-2-oxo-6-(trifluoromethyl)-1,2-dihydropyridine-3-carboxamide]
1030	O=C(NC1c2ccccc2Oc2c(Cl)cccc21)c1ccc(C(F)(F)F)[nH]c1=O (stereo not shown) [Compound 152, N-(4-chloro-9H-xanthen-9-yl)-2-oxo-6-(trifluoromethyl)-1,2-dihydropyridine-3-carboxamide]
1790	O=C(NC1c2cc(Cl)ccc2Oc2ccc(Cl)cc21)c1ccc(C(F)(F)F)[nH]c1=O [Compound 153, N-(2,7-dichloro-9H-xanthen-9-yl)-2-oxo-6-(trifluoromethyl)-1,2-dihydropyridine-3-carboxamide]
650	N#Cc1ccc2c(c1)C(NC(=O)c1ccc(C(F)(F)F)[nH]c1=O)c1ccccc1O2 (stereo not shown) [Compound 154, N-(2-cyano-9H-xanthen-9-yl)-2-oxo-6-(trifluoromethyl)-1,2-dihydropyridine-3-carboxamide]
460	C=Cc1ccc2c(c1)C(NC(=O)c1ccc(C(F)(F)F)[nH]c1=O)c1ccccc1O2 (stereo not shown) [Compound 155, 2-oxo-6-(trifluoromethyl)-N-(2-vinyl-9H-xanthen-9-yl)-1,2-dihydropyridine-3-carboxamide]
260	O=C(NC1c2ccccc2Oc2cccc(F)c21)c1ccc(C(F)(F)F)[nH]c1=O (stereo not shown) [Compound 156, N-(1-fluoro-9H-xanthen-9-yl)-2-oxo-6-(trifluoromethyl)-1,2-dihydropyridine-3-carboxamide]
850	Cc1cccc2c1C(NC(=O)c1ccc(C(F)(F)F)[nH]c1=O)c1ccccc1O2 (stereo not shown) [Compound 157, N-(1-methyl-9H-xanthen-9-yl)-2-oxo-6-(trifluoromethyl)-1,2-dihydropyridine-3-carboxamide]
360	Cc1ccc2c(c1)C(NC(=O)c1ccc(C(F)(F)F)[nH]c1=O)c1cc(C)ccc1O2 [Compound 158, N-(2,7-dimethyl-9H-xanthen-9-yl)-2-oxo-6-(trifluoromethyl)-1,2-dihydropyridine-3-carboxamide]
600	O=C(NC1c2ccccc2Oc2cccc(Cl)c21)c1ccc(C(F)(F)F)[nH]c1=O (stereo not shown) [Compound 159, N-(1-chloro-9H-xanthen-9-yl)-2-oxo-6-(trifluoromethyl)-1,2-dihydropyridine-3-carboxamide]
180	CCc1ccc2c(c1)C(NC(=O)c1ccc(C(F)(F)F)[nH]c1=O)c1ccccc1O2 (stereo not shown) [Compound 160, N-(2-ethyl-9H-xanthen-9-yl)-2-oxo-6-(trifluoromethyl)-1,2-dihydropyridine-3-carboxamide]
80	CCc1ccc2c(c1)Oc1ccccc1C2NC(=O)c1ccc(C(F)(F)F)[nH]c1=O (stereo not shown) [Compound 162, N-(3-ethyl-9H-xanthen-9-yl)-2-oxo-6-(trifluoromethyl)-1,2-dihydropyridine-3-carboxamide]
840	CCc1cccc2c1C(NC(=O)c1ccc(C(F)(F)F)[nH]c1=O)c1ccccc1O2 (stereo not shown) [Compound 163, N-(1-ethyl-9H-xanthen-9-yl)-2-oxo-6-(trifluoromethyl)-1,2-dihydropyridine-3-carboxamide]
900	Cc1ccc2c(c1)Oc1cccc(C)c1C2NC(=O)c1cc(C)c(C(F)(F)F)[nH]c1=O (stereo not shown) [Compound 164, N-(1,6-dimethyl-9H-xanthen-9-yl)-5-methyl-2-oxo-6-(trifluoromethyl)-1,2-dihydropyridine-3-carboxamide]
110	Cc1cc(C(=O)NC2c3ccc(Cl)cc3Oc3cc(Cl)ccc32)c(=O)[nH]c1C(F)(F)F [Compound 165, N-(3,6-dichloro-9H-xanthen-9-yl)-5-methyl-2-oxo-6-(trifluoromethyl)-1,2-dihydropyridine-3-carboxamide]
60	Cc1ccc2c(c1)Oc1cc(C)ccc1C2NC(=O)c1cc(C)c(C(F)(F)F)[nH]c1=O [Compound 166, N-(3,6-dimethyl-9H-xanthen-9-yl)-5-methyl-2-oxo-6-(trifluoromethyl)-1,2-dihydropyridine-3-carboxamide]
820	CCc1cc(C(=O)NC2c3ccc(C)cc3Oc3cccc(C)c32)c(=O)[nH]c1C(F)(F)F (stereo not shown) [Compound 167, N-(1,6-dimethyl-9H-xanthen-9-yl)-5-ethyl-2-oxo-6-(trifluoromethyl)-1,2-dihydropyridine-3-carboxamide]
